Laboratory results from ChEMBL document CHEMBL1147996, “Synthesis and biological evaluation of phosphino dipeptide isostere inhibitor of human beta-secretase (BACE1)” (Bioorg Med Chem, 2007).
*1 amine or outer side, *2 acyl side, *3 side chain or, on linkers, in order; H or OH if unused. Where a SMILES comes first, the peptide text is derived from it. [ ]: non-standard residue; d: D form. X3 = CC(C)C[C@@H](N[*:1])P(=O)(O)CC(C)C(=O)[*:2]; X1 = CC(C)C[C@H](N[*:1])P(=O)(O)CC(C)C(=O)[*:2]; X2 = CC(C)CC(N[*:1])P(=O)(O)CC(C)C(=O)[*:2]

Tests used:
Beta-secretase 1 = Beta-secretase 1 (Homo sapiens, UniProt P56817); assay: Inhibition of human BACE1 expressed in HEK293 cells; type: cell-based
Chain of Beta-secretase 1 (P56817 whole entry): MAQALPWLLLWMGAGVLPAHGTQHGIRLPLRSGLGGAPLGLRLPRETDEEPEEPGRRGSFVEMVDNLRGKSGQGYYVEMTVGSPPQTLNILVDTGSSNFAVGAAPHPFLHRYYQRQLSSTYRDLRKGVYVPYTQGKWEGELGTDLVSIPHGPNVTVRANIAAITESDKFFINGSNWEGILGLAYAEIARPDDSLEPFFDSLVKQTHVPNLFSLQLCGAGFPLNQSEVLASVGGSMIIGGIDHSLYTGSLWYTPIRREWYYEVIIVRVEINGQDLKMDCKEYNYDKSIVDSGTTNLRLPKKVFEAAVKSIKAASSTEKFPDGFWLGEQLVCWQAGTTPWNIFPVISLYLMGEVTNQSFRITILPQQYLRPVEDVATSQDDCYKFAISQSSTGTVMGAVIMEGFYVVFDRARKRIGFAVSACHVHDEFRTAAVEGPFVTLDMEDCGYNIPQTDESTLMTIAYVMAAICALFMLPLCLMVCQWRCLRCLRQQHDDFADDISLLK

Beta-secretase 2 = target: T1, Beta-secretase 2 (Homo sapiens, UniProt Q9Y5Z0); assay: Inhibition of BACE2 expressed in HEK293 cells; type: cell-based
T1 sequence (Q9Y5Z0 whole entry): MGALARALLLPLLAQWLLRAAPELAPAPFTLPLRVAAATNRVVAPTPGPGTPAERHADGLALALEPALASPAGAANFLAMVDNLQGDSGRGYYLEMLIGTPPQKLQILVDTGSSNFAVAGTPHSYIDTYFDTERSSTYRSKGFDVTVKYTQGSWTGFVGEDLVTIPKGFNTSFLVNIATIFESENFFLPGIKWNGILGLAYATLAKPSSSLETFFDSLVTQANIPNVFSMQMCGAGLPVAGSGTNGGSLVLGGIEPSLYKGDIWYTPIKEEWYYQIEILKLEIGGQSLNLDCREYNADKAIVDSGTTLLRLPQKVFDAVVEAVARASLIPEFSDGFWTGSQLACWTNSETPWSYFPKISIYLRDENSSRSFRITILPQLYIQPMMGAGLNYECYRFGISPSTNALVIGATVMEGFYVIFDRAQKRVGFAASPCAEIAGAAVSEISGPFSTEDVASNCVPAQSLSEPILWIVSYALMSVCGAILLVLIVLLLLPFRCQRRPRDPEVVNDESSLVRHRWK

Cathepsin D = Cathepsin D (Homo sapiens, UniProt P07339); assay: Inhibition of cathepsin D expressed in HEK293 cells; type: cell-based
Chain of Cathepsin D (P07339 65-162 limits assumed): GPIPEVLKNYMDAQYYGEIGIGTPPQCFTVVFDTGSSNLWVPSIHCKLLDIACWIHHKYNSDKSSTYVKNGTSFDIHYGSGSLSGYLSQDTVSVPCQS
Chain of Cathepsin D (P07339 169-412 limits assumed): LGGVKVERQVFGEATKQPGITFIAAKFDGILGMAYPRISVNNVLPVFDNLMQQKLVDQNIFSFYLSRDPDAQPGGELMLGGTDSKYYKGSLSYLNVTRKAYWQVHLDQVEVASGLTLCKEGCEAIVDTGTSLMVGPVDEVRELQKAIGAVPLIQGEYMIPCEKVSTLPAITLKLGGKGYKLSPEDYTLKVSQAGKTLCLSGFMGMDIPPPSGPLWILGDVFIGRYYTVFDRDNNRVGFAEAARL

[1] = Inhibition of porcine pepsin; set-up: species or system Sus scrofa

SMILES | IC50 (Beta-secretase 1) | IC50 (Beta-secretase 2) | IC50 (Cathepsin D) | IC50 [1]
CC(C)C[C@H](NC(=O)[C@@H](N)CCC(=O)O)C(=O)N[C@@H](CC(=O)O)C(=O)N[C@H](CC(C)C)P(=O)(O)CC(C)C(=O)N[C@H](C(=O)N[C@@H](CCC(=O)O)C(=O)N[C@@H](Cc1ccccc1)C(=O)O)C(C)C (stereo partly specified) (H-ELD[X3]VEF-OH) | 2020 nM |  |  | 
CC(C)CC(NC(=O)[C@H](CC(=O)O)NC(=O)[C@H](CC(C)C)NC(=O)[C@@H](N)CCC(=O)O)P(=O)(O)CC(C)C(=O)N[C@H](C(=O)N[C@@H](CCC(=O)O)C(=O)N[C@@H](Cc1ccccc1)C(=O)O)C(C)C (stereo partly specified) (H-ELD[X2]VEF-OH) | 675 nM |  |  | 
CC(C)C[C@H](NC(=O)[C@@H](N)CCC(=O)O)C(=O)N[C@@H](CC(=O)O)C(=O)N[C@@H](CC(C)C)P(=O)(O)CC(C)C(=O)N[C@H](C(=O)N[C@@H](CCC(=O)O)C(=O)N[C@@H](Cc1ccccc1)C(=O)O)C(C)C (stereo partly specified) (H-ELD[X1]VEF-OH) | 12 nM | 12 nM | 28 nM | 8 nM
